# Publication PMC9024523, “Phenoxyaromatic Acid Analogues as Novel Radiotherapy Sensitizers: Design, Synthesis and Biological Evaluation” (Molecules, 2022)
# “And” between values parts separate entries of the source, which are not always exact repeats. Equal entries are not always repeated.
# Test system: mouse red blood cells
# Assay: In vitro red blood cell-based assay (oxygen equilibrium curve, Softron analyzer)
# Conditions: final effector concentration 2 mM, mean ± SD; for P50/P50C: P50C = control with 1% DMSO; for P50: 1% DMSO; for P50 / ∆P50: mouse red blood cells; for ∆P50: ∆P50 = P50 − P50C
# From the text: In the first stage of our research, three series of analogues were designed and synthesized to explore refinement of the hydrophobic parts of 19f, 19m, 24a and 24b; hinge areas of 18g, 19b and 19y; and tail regions of 15c, 15d and 16c, respectively. We used the Softron Analyzer to evaluate the effect of these compounds on the half-blood oxygen saturation(P50) value of red blood cells. The most promising phenoxyaromatic acid compound, efaproxiral, was used as a positive control. […] The results reminded us that the modification of the hydrophobic part or linker extension is beneficial to improve an allosteric effect.
# Eight-week-old female C57BL6J mice were purchased from Beijing Vital River Laboratory Animal Technology Co., Ltd. A total of 540 μL mouse blood was added into the 1.5 mL centrifuge tube, followed by adding 60 μL 3.8% sodium citrate. The mixture was then centrifuged at 1500 rpm for 10 min, the supernatant was carefully aspirated, and the cells were washed three times with PBS solution. After mixing packed red blood cells with Alsever’s solution in a ratio of 1:1, a blood gas analyzer (RADIOMETER ABL 90) was used to analyze the red blood cell density and hemoglobin concentration.
# All of the compounds were prepared as 200 mM stock solutions in DMSO. Oxygen equilibrium measurements were performed with the Softron analyzer (Softron Medical Products, Beijing, China) using mouse red blood cells. The samples were prepared by adding 3 mg hemoglobin equivalent of red blood cells into 3.92 mL loading buffer (100 mM NaCl, 50 mM bis-Tris at pH 7.2 and 25 °C), followed by 20 μL 10% Dimethicone as a defoamer and 20 μL 20% BSA. Afterwards, 40 μL stock solution was added, and the mixture was loaded to the sample cell and fully deoxygenated by blowing into nitrogen at 37 °C for 15 min. Then, the oxygen equilibrium curve was recorded by blowing into oxygen.
Compound,P50/P50C,P50 [mmHg],K (Hill coefficient of the oxygen dissociation curve at 50% saturation),∆P50,∆P50 (listed as 190) [mmHg]
"2-(4-(1-((3,5-dimethylphenyl)carbamoyl)cyclopropyl)phenoxy)-2-methylpropanoic acid [19e]",1.10 ± 0.04,46.24 ± 7.09,2.40 ± 0.12,4.41 ± 2.27 mmHg,
2-(4-(2-((3-bromo-5-chlorophenyl)amino)ethyl)phenoxy)-2-methylpropanoic acid [18b],1.10 ± 0.03,42.61 ± 2.15,2.19 ± 0.01,3.66 ± 0.88 mmHg,
"2-(4-(2-([1,1′-biphenyl]-4-ylamino)ethyl)phenoxy)-2-methylpropanoic acid [18e]",1.15 ± 0.37,51.84 ± 16.79,2.28 ± 0.28,6.60 ± 16.79 mmHg,
2-methyl-2-(4-(2-(naphthalen-2-ylamino)ethyl)phenoxy)propanoic acid [18f],1.72 ± 0.03,79.24 ± 1.61,1.89 ± 0.13,33.13 ± 1.61 mmHg,
2-methyl-2-(4-(2-oxo-2-(o-tolylamino)ethyl)phenoxy)propanoic acid [19f],1.17 ± 0.04,53.78 ± 1.94,2.26 ± 0.11,7.72 ± 1.87 mmHg,
"7-(2-((3,5-dimethylphenyl)amino)-2-oxoethyl)-2,3-dihydrobenzo[b][1,4]dioxine-2-carboxylic acid [compound 20]",1.12 ± 0.06,47.11 ± 8.08,2.39 ± 0.16,5.27 ± 3.27 mmHg,
"CCOC(=O)CCCOc1ccc(CC(=O)Nc2cc(C)cc(C)c2)cc1 [15a, Ethyl 4-(4-(2-((3,5-dimethylphenyl)amino)-2-oxoethyl)phenoxy)butanoate]",0.96 ± 0.25,43.55 ± 11.21,,−1.70 ± 11.21 mmHg,
"COC(=O)C(Oc1ccc(CC(=O)Nc2cc(C)cc(C)c2)cc1)c1ccccc1 (stereo not shown) [15b, Methyl2-(4-(2-((3,5-dimethylphenyl)amino)-2-oxoethyl)phenoxy)-2-phenylacetate]",1.28 ± 0.19,57.82 ± 8.69,,12.58 ± 8.69 mmHg,
"COC(=O)C(C)(C)Oc1ccc(CC(=O)Nc2cc(C)cc(C)c2)cc1 [15c, Methyl2-(4-(2-((3,5-dimethylphenyl)amino)-2-oxoethyl)phenoxy)-2methylpropanoate]",0.96 ± 0.26,43.28 ± 11.71,,−1.96 ± 11.71 mmHg,
"Cc1cc(C)cc(NC(=O)Cc2ccc(OCCCC(=O)O)cc2)c1 [16a, 4-(4-(2-((3,5-dimethylphenyl)amino)-2-oxoethyl)phenoxy)butanoic acid]",1.18 ± 0.04,53.49 ± 1.85,,8.25 ± 1.85 mmHg,
"Cc1cc(C)cc(NCCCc2ccc(OC(C)(C)C(=O)O)cc2)c1 [18a, 2-(4-(3-((3,5-dimethylphenyl)amino)propyl)phenoxy)-2-methylpropanoic acid]",1.41 ± 0.03,77.19 ± 5.93,,22.54 ± 2.74 mmHg,
"CSc1cccc(NCCc2ccc(OC(C)(C)C(=O)O)cc2)c1 [18c, 2-methyl-2-(4-(2-((3-(methylthio)phenyl)amino)ethyl)phenoxy)propanoic acid]",1.28 ± 0.07,48.61 ± 4.43,,10.7 ± 2.95 mmHg,
"C#Cc1cccc(NCCc2ccc(OC(C)(C)C(=O)O)cc2)c1 [18d, 2-(4-(2-((3-ethynylphenyl)amino)ethyl)phenoxy)-2-methylpropanoic acid]",1.15 ± 0.05,52.25 ± 2.32,,7.01 ± 2.32 mmHg,
"Cc1cc(C)cc(NCCc2ccc(OC(C)(C)C(=O)O)cc2)c1 [18g, 2-(4-(2-((3,5-dimethylphenyl)amino)ethyl)phenoxy)-2-methylpropanoic acid]",1.86 ± 0.05,77.54 ± 6.96,,35.71 mmHg and 35.71 ± 2.14 mmHg,
"Cc1cc(C)cc(NC(=O)c2ccc(OC(C)(C)C(=O)O)cc2)c1 [19b, 2-(4-((3,5-dimethylphenyl)carbamoyl)phenoxy)-2-methylpropanoic acid]",1.04 ± 0.05,43.01 ± 2.18,,1.82 ± 2.18 mmHg,
"Cc1cc(C)cc(NC(=O)CCCc2ccc(OC(C)(C)C(=O)O)cc2)c1 [19d, 2-(4-(4-((3,5-dimethylphenyl)amino)-4-oxobutyl)phenoxy)-2-methylpropanoic acid]",1.60 ± 0.02,67.93 ± 8.80,,25.43 ± 3.71 mmHg,
"CC(C)(Oc1ccc(CC(=O)Nc2cc(Br)cc(Br)c2)cc1)C(=O)O [19h, 2-(4-(2-((3,5-dibromophenyl)amino)-2-oxoethyl)phenoxy)-2-methylpropanoic acid]",1.87 ± 0.03,68.71 ± 1.18,,31.90 ± 1.18 mmHg,
"CC(C)(Oc1ccc(CC(=O)Nc2cccc(I)c2)cc1)C(=O)O [19i, 2-(4-(2-((3-iodophenyl)amino)-2-oxoethyl)phenoxy)-2-methylpropanoic acid]",1.91 ± 0.13,86.61 ± 6.04,,41.37 mmHg and 41.37 ± 6.04 mmHg,
"CC(C)(Oc1ccc(CC(=O)Nc2cc(Cl)cc(Br)c2)cc1)C(=O)O [19j, 2-(4-(2-((3-. bromo-5-chlorophenyl)amino)-2-oxoethyl)phenoxy)-2-methylpropanoic acid]",1.82 ± 0.02,82.35 ± 0.80,,37.11 ± 0.80 mmHg,
"CC(C)(Oc1ccc(CC(=O)Nc2ccccc2Br)cc1)C(=O)O [19k, 2-(4-(2-((2-bromophenyl)amino)-2-oxoethyl)phenoxy)-2-methylpropanoic acid]",1.34 ± 0.29,49.17 ± 10.7,,12.36 ± 10.79 mmHg,
"Cc1cccc(NC(=O)Cc2ccc(OC(C)(C)C(=O)O)cc2)c1Br [19l, 2-(4-(2-((2-bromo-3-methylphenyl)amino)-2-oxoethyl)phenoxy)-2-methylpropanoic acid]",1.56 ± 0.04,70.41 ± 1.68,,25.17 ± 1.68 mmHg,
"CSc1ccc(NC(=O)Cc2ccc(OC(C)(C)C(=O)O)cc2)cc1 [19m, 2-methyl-2-(4-(2-((4-(methylthio)phenyl)amino)-2-oxoethyl)phenoxy)propanoic acid]",1.80 ± 0.02,74.24 ± 0.69,,33.05 mmHg and 33.05 ± 0.69 mmHg,
"CSc1cccc(NC(=O)Cc2ccc(OC(C)(C)C(=O)O)cc2)c1 [19m-1, 2-methyl-2-(4-(2-((3-(methylthio)phenyl)amino)-2-oxoethyl)phenoxy)propanoic acid]",1.81 ± 0.02,81.67 ± 0.95,,36.43 mmHg and 36.43 ± 0.95 mmHg,
"C#Cc1ccc(NC(=O)Cc2ccc(OC(C)(C)C(=O)O)cc2)cc1 [19n, 2-(4-(2-((4-ethynylphenyl)amino)-2-oxoethyl)phenoxy)-2-methylpropanoic acid]",1.46 ± 0.02,60.34 ± 0.70,,19.15 mmHg and 19.15 ± 0.70 mmHg,
"C#Cc1cccc(NC(=O)Cc2ccc(OC(C)(C)C(=O)O)cc2)c1 [19n-1, 2-(4-(2-((3-ethynylphenyl)amino)-2-oxoethyl)phenoxy)-2-methylpropanoic acid]",1.79 ± 0.04,80.97 ± 1.77,,38.73 mmHg and 38.73 ± 2.47 mmHg,
"CC(C)(Oc1ccc(CC(=O)Nc2ccc(-c3ccccc3)cc2)cc1)C(=O)O [19o, 2-(4-(2-([1,1′-biphenyl]-4-ylamino)-2-oxoethyl)phenoxy)-2-methylpropanoic acid]",1.81 ± 0.04,74.56 ± 1.75,,33.37 mmHg,33.37 ± 1.75
"CC(C)(Oc1ccc(CC(=O)Nc2cccc(-c3ccccc3)c2)cc1)C(=O)O [19p, 2-(4-(2-([1,1′-biphenyl]-3-ylamino)-2-oxoethyl)phenoxy)-2-methylpropanoic acid]",1.87 ± 0.02,77.10 ± 0.66,,35.91 mmHg and 35.91 ± 0.66 mmHg,
"CC(C)(Oc1ccc(CC(=O)Nc2ccc(C#N)cc2)cc1)C(=O)O [19q, 2-(4-(2-((4-cyanophenyl)amino)-2-oxoethyl)phenoxy)-2-methylpropanoic acid]",1.32 ± 0.30,59.60 ± 13.58,,14.36 ± 13.58 mmHg,
